Assay results from patent US9206226B2, “Non-ionic acid-labile surfactants and methods of use” (Protea Biosciences, Inc., priority 2011, dated 2015).

Target: bovine serum albumin (BSA) (Bos taurus, UniProt P02769)
Test: MALDI-TOF mass spectra of BSA with surfactant, intact and acid-degraded
Conditions: for BSA MALDI signal after surfactant degradation: degraded about 30 minutes in 1% TFA at pH 2.5
Description: The various embodiments of non-ionic acid-labile surfactants and methods of use described herein may be better understood when read in conjunction with the following representative examples. The following examples are included for purposes of illustration and not limitation. MALDI-TOF spectra were acquired using an ABI 4800 mass spectrometer in the linear mode.
Referring to FIGS. 2A-C, 0.1% N-[2,2-Bis(pentyloxy)propan-1-aminocarbonyl]-β-maltosylamine was mixed with bovine serum albumin (BSA) in water. The samples were spotted onto a MALDI pre-spotted target with CHCA MALDI matrix using C8 reversed phase tips. FIG. 2A includes a mass spectra of 20 pmol BSA in water. BSA was detected at m/z 22344, m/z 33480, and m/z 66854. FIG. 2B includes a mass spectra of 20 pmol BSA dissolved in 0.1% N-[2,2-Bis(pentyloxy)propan-1-aminocarbonyl]-β-maltosylamine. […] FIG. 2C includes a mass spectra of 20 pmol BSA in 0.1% N-[2,2-Bis(pentyloxy)propan-1-aminocarbonyl]-β-maltosylamine after being degraded for about thirty (30) minutes in 1% TFA at pH 2.5. BSA was detected at m/z 22212, m/z 33309, and m/z 66460.
Referring to FIGS. 3A-C, 1% N-[2,2-Bis(pentyloxy)propan-1-aminocarbonyl]-β-maltosylamine was mixed with bovine serum albumin (BSA) in water. The samples were spotted onto a MALDI pre-spotted target with CHCA MALDI matrix using C8 reversed phase tips. FIG. 3A includes a mass spectra of 20 pmol BSA in water. BSA was detected at m/z 22344, m/z 33480, and m/z 66854. FIG. 3B includes a mass spectra of 20 pmol BSA dissolved in 1% N-[2,2-Bis(pentyloxy)propan-1-aminocarbonyl]-β-maltosylamine. […] FIG. 3C includes a mass spectra of 20 pmol BSA in 1% N-[2,2-Bis(pentyloxy)propan-1-aminocarbonyl]-β-maltosylamine after being degraded for about thirty (30) minutes in 1% TFA at pH 2.5. BSA was detected at m/z 22260, m/z 33377, and m/z 66527.
Referring to FIGS. 5A-C, 0.1% N-[2,2-Bis(hexyloxy)propan-1-aminocarbonyl]-β-maltosylamine was mixed with BSA. The samples were spotted onto a MALDI pre-spotted target with CHCA MALDI matrix using C8 reversed phase tips. FIG. 5A includes a mass spectra of 20 pmol BSA in water. BSA was detected at m/z 22344, m/z 33480, and m/z 66854. FIG. 5B includes a mass spectra of 20 pmol BSA dissolved in 0.1% N-[2,2-Bis(hexyloxy)propan-1-aminocarbonyl]-β-maltosylamine. […] FIG. 5C includes a mass spectra of 20 pmol BSA in 0.1% N-[2,2-Bis(phexyloxy)propan-1-aminocarbonyl]-β-maltosylamine after being degraded for about thirty (30) minutes in 1% TFA at pH 2.5. BSA was detected at m/z 22197, m/z 33284, and m/z 66405.

[1] = 20 pmol BSA dissolved in 0.1% surfactant

Sequence of bovine serum albumin (BSA) (P02769 25-607): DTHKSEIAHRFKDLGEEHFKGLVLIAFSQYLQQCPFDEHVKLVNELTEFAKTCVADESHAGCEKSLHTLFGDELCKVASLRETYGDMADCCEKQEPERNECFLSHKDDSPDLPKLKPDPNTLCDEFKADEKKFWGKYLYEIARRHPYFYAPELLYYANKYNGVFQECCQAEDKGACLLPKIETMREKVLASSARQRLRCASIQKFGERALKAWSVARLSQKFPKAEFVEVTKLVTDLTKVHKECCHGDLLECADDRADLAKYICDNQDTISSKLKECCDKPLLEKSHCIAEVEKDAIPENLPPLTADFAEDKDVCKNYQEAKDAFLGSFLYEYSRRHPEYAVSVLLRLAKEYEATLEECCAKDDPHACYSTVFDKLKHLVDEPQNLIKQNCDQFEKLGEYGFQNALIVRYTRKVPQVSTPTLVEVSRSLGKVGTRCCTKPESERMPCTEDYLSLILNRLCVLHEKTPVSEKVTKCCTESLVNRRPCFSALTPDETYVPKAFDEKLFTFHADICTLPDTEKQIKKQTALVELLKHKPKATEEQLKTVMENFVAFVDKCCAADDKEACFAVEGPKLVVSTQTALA

| BSA MALDI signal, intact surfactant [1] | BSA MALDI signal, intact surfactant (20 pmol BSA dissolved in 1% surfactant) | Compound | BSA MALDI signal after surfactant degradation (0.1% surfactant) | BSA MALDI signal after surfactant degradation (1% surfactant) |
| --- | --- | --- | --- | --- |
| no signal from the BSA was detected | no signal from the BSA was detected | CCCCCOC(C)(CNC(=O)NC1OC(CO)C(OC2OC(CO)C(O)C(O)C2O)C(O)C1O)OCCCCC (stereo not drawn) [N-[2,2-Bis(pentyloxy)propan-1-aminocarbonyl]-β-maltosylamine] | a signal from the BSA was detected when the surfactant was degraded | a signal from the BSA was detected when the surfactant was degraded |
| no signal from the BSA was detected | – | CCCCCCOC(C)(CNC(=O)NC1OC(CO)C(OC2OC(CO)C(O)C(O)C2O)C(O)C1O)OCCCCCC (stereo not drawn) [N-[2,2-Bis(hexyloxy)propan-1-aminocarbonyl]-β-maltosylamine] | a signal from the BSA was detected when the surfactant was degraded | – |
